Here are results for five compounds from patent US8309551B2, “Pyrazolopyridine, indazole, imidazopyridine, imidazopyrimidine, pyrazolopyrazine and pyrazolopyridine derivatives as stimulators of guanylate cyclase for cardiovascular disorders” (Bayer Intellectual Property GmbH, priority 2006, dated 2012).

In the test the test system is aorta rings. Briefly: Vasorelaxant effect in vitro (phenylephrine-contracted rabbit aorta rings). Particulars: Oryctolagus cuniculus, read-out: IC50 (concentration necessary to reduce the level of contraction by 50%). Here is the method: B-1. Vasorelaxant Effect in Vitro
Rabbits are stunned by a blow to the back of the neck and are exsanguinated. The aorta is removed, freed of adherent tissue, divided into rings 1.5 mm wide and placed singly in 5 ml organ baths with carbogen-gassed Krebs-Henseleit solution of the following composition (in each case mM): NaCl: 119; KCl: 4.8; CaCl2×2 H2O: 1; MgSO4×7 H2O: 1.4; KH2PO4: 1.2; NaHCO3: 25; glucose: 10, under an initial tension at 37° C. The force of contraction is detected with Statham UC2 cells, amplified and digitized via A/D converters (DAS-1802 HC, Keithley Instruments Munich), and recorded in parallel on chart recorders. A contraction is induced by adding phenylephrine to the bath cumulatively in increasing concentration. After several control cycles, the substance to be investigated is added in each further run in increasing dosage each time, and the level of contraction is compared with the level of contraction achieved in the last preceding run. The concentration necessary to reduce the level of contraction by 50% (IC50) is calculated therefrom. The standard application volume is 5 μl, and the DMSO content in the bath solution corresponds to 0.1%.

Setting [1] is: rabbit aorta rings, contraction induced by phenylephrine, 37° C., 0.1% DMSO.

Read-outs that look alike come from different tables or passages of the source.

`Nc1nc(N)nc(-n2nc(Cc3ccccc3F)c3ccccc32)n1` [Example 2, 6-[3-(2-Fluorobenzyl)-1H-indazol-1-yl]-1,3,5-triazine-2,4-diamine]: the IC50 under setting [1] was 300 nM.

Turning to `Nc1nc(N)nc(-c2nc(Cc3ccccc3F)c3ncccn23)n1` [Example 4, 6-[8-(2-Fluorobenzyl)imidazo[1,5-a]pyrimidin-6-yl]-1,3,5-triazine-2,4-diamine], the IC50 amounted to 215 nM.

For `Nc1nc(N)nc(-c2nc(Cc3ccccc3F)n3ccccc23)n1` [Example 3, 6-[3-(2-Fluorobenzyl)imidazo[1,5-a]pyridin-1-yl]-1,3,5-triazine-2,4-diamine], under setting [1], the IC50 stood at 2900 nM.

For `Nc1cc(N)nc(-c2nc(Cc3ccccc3F)c3ncccn23)n1` [Example 7, 2-[8-(2-Fluorobenzyl)imidazo[1,5-a]pyrimidin-6-yl]pyrimidine-4,6-diamine], the IC50 turned out to be 1050 nM.

Consider `Nc1nc(N)nc(-n2nc(Cc3ccccc3F)c3ncccc32)n1` [Example 1, 6-[3-(2-Fluorobenzyl)-1H-pyrazolo[4,3-b]pyridin-1-yl]-1,3,5-triazine-2,4-diamine], for which, under setting [1], the IC50 worked out at 240 nM.
